Measurements as given in US20260069571A1, “DDR1 AND DDR2 INHIBITORS FOR THE TREATEMENT OF CANCER AND FIBROTIC DISEASES” (REDX PHARMA PLC, priority 2021, published 2026).

Assays:
Recombinant human DDR1 = Recombinant human DDR1 (Homo sapiens (Human), UniProt Q08345); assay: LanthaScreen Eu Kinase Binding Assay, DDR1; details: DDR1 2.5 nM (aa440-876, GST tag), Kinase Tracer 178 5 nM; for IC50: read-out: DDR1 pIC50 (converted)
Summary of the method: (§1)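 GST-tagged kinase domains (DDR1 aa440-876 at 2.5 nM; DDR2 aa427-855 at 1.75 nM) were preincubated 30 min at room temperature with compound in HEPES pH 7.3 buffer. Then 1 nM Eu-anti-GST plus Tracer 178 (5 nM DDR1, 10 nM DDR2) were added; after 60 min, TR-FRET gave IC50 by four-parameter fit, ≥2 replicates.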

Recombinant human DDR2 = Recombinant human DDR2 (Homo sapiens (Human), UniProt Q16832); assay: LanthaScreen Eu Kinase Binding Assay, DDR2; details: DDR2 1.75 nM (aa427-855, GST tag), Kinase Tracer 178 10 nM; read-out: DDR2 pIC50 (converted)
Summary of the method: as §1

Recombinant human DDR2, sequence (Q16832 427-855): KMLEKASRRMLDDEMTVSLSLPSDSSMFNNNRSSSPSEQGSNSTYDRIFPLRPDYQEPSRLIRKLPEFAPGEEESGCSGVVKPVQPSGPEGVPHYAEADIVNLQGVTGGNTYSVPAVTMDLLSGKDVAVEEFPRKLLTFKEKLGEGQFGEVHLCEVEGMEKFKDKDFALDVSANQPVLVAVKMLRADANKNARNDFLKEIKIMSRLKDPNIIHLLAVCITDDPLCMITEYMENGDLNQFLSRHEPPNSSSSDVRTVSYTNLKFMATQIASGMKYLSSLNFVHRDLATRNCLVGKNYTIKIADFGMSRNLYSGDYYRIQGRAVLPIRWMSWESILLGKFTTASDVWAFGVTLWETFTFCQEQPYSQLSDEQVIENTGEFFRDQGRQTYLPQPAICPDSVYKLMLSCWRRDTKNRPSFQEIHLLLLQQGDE
Recombinant human DDR1, sequence (Q08345 other isoform, or with tags, fused parts or gaps): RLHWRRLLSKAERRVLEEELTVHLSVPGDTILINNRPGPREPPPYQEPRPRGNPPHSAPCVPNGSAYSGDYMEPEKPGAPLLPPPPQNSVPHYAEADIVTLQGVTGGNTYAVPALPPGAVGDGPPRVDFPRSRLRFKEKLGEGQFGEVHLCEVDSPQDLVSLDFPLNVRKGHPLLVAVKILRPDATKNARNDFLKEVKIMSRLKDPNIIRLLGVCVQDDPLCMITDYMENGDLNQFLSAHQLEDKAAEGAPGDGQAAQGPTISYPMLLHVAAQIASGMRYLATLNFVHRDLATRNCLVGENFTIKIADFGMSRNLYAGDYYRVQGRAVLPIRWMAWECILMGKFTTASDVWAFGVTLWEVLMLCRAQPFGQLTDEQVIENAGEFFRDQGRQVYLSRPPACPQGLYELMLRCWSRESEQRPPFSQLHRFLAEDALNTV

Row | IC50 (Recombinant human DDR1) [nM] | IC50 (Recombinant human DDR2) [nM] | DDR1 pIC50 (Recombinant human DDR1) | SMILES
1 | 10 to 100 | 10 to 100 | – | O=C1c2c(cccc2Nc2ccc3[nH]nc(F)c3c2)CN1CC(=O)N1CCC[C@H]1C(F)(F)F [Example 83, 7-[(3-fluoro-1H-indazol-5-yl)amino]-2-[2-oxo-2-[(2S)-(trifluoromethyl)pyrrolidin-1-yl]ethyl]isoindolin-1-one]
2 | 10 to 100 | 100 to 1000 | – | O=C1c2c(cccc2Nc2ccc3[nH]ncc3n2)CN1CC(=O)N1CCC[C@H]1C(F)(F)F [Example 84, 2-[2-oxo-2-[(2S)-(trifluoromethyl)pyrrolidin-1-yl]ethyl]-7-(1H-pyrazolo[4,3-b]pyridin-5-ylamino)isoindolin-1-one]
3 | 10 to 100 | 100 to 1000 | – | Cn1ncc2cc(Nc3cccc4c3C(=O)N(CC(=O)NC3CC3(F)F)C4)cnc21 (stereo not shown) [Example 52, N-(2,2-difluorocyclopropyl)-2-[7-[(1-methylpyrazolo[3,4-b]pyridin-5-yl)amino]-1-oxo-isoindolin-2-yl]acetamide]
4 | 10 to 100 | 100 to 1000 | – | Cc1nn(C)c2ncc(Nc3cccc4c3C(=O)N(CC(=O)N3CCC[C@H]3C(F)(F)F)C4)cc12 [Example 102, 7-[(1,3-dimethylpyrazolo[3,4-b]pyridin-5-yl)amino]-2-[2-oxo-2-[(2S)-(trifluoromethyl)pyrrolidin-1-yl]ethyl]isoindolin-1-one]
5 | – | 10 to 100 | A (pIC50>8) | CN(CC(F)(F)F)C(=O)CN1Cc2cccc(Nc3ccc4c(cnn4C)c3)c2C1=O [Example 43, N-methyl-2-[7-[(1-methylindazol-5-yl)amino]-1-oxo-isoindolin-2-yl]-N-(2,2,2-trifluoroethyl)acetamide]
